Results on 13 compounds are retold here after ChEMBL document CHEMBL1201862, “PubChem BioAssay data set” (2004).

Where “and” joins values, the source holds several entries; their conditions need not be identical. Equal entries are not always repeated.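 In this assay, cells in 96-well plates receive the compound at five concentrations for 48 hours. Endpoints are linearly interpolated between the surrounding concentrations. GI50 = concentration required for 50% inhibition of growth.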 Calls of active or inactive are those of the source. Cut-off read from the data, not from the text of the source: active = GI50 up to about 1.1 µM and inactive = higher. A value given as a limit tells only on which side of the number the result lay.

Test systems include K562; HOP-62; SN12C; NCI-H23; Malme-3M; U-251; M14; CAKI-1; COLO 205; SK-MEL-2; PC-3; NCI/ADR-RES; MDA-MB-435; SNB-19; SK-MEL-28; NCI-H522; 786-0; MOLT-4; HL-60.
Holding throughout (assay): NCI tumour cell line growth inhibition, 48 h

In the case of `N#Cc1c(N)n(C2OC(CO)C(O)C2O)c2ncnc(N)c12` (stereo unspecified), the GI50 was 0.048 µM (active) in the assay on K562; 0.0335 µM (active) with HOP-62; 0.0186 µM (active) in the assay with SN12C; 0.0292 µM (active) with NCI-H23; 0.0367 µM (active) in the assay with Malme-3M; 0.114 µM (active) in the assay with U-251. For the same compound, the GI50 in the assay with M14 was 0.0617 µM (active); with CAKI-1, 0.0463 µM (active); in the assay on COLO 205 it was 0.0329 µM (active); with SK-MEL-2 it was 0.0521 µM (active); in the assay on PC-3, 24.5 nM (active); in the assay with NCI/ADR-RES, 0.0243 µM (active). The GI50 in the assay on MDA-MB-435 is 0.0212 µM (active); in the assay on SNB-19, 0.129 µM (active); with SK-MEL-28, 0.119 µM (active); in the assay on NCI-H522, 0.135 µM (active); in the assay on 786-0, 0.0671 µM (active); in the assay on MOLT-4, 0.0248 µM (active).
As to `CC(=O)Nc1ccc(-c2nnc(SCC(=O)Nc3ccc(Cl)cc3)o2)cc1`, the GI50 was 5.83 µM (inactive) in the assay with K562; 22.4 µM (inactive) with HOP-62; 10.4 µM (inactive) with SN12C; 3.39 µM (inactive) in the assay on NCI-H23; 13.6 µM (inactive) in the assay with Malme-3M; 3.38 µM (inactive) with U-251. Also, the GI50 is 14.5 µM (inactive) in the assay with M14; 18 µM (inactive) in the assay on CAKI-1; 17.6 µM (inactive) in the assay on COLO 205; 17.5 µM (inactive) with SK-MEL-2; 16.3 µM (inactive) with HL-60; 20 µM (inactive) with SNB-19. Further, the GI50 in the assay on SK-MEL-28 was 13.2 µM (inactive); with NCI-H522 it was 2.34 µM (inactive); in the assay on 786-0, 5.78 µM (inactive); in the assay with MOLT-4 it was 11.2 µM (inactive).
Turning to `O=C(/C=C/c1ccccc1O)c1ccccc1Cl`, the GI50 was 23.4 µM (inactive) in the assay with K562; 75.7 µM (inactive) with HOP-62; 56.4 µM (inactive) with SN12C; 21.1 µM (inactive) with NCI-H23; > 100 µM (inactive) in the assay with Malme-3M; 39.9 µM (inactive) with U-251. In addition, the GI50 in the assay on M14 was 54.5 µM (inactive); with CAKI-1 it was 49.8 µM (inactive); in the assay on COLO 205 it was 33 µM (inactive); in the assay with SK-MEL-2 it was 61.5 µM (inactive); in the assay on HL-60, 15.3 µM (inactive); in the assay with SNB-19, 45.1 µM (inactive). For the same compound, the GI50 in the assay with SK-MEL-28 is > 100 µM (inactive); in the assay on NCI-H522 it was 31.3 µM (inactive); with 786-0, 92.5 µM (inactive); in the assay on MOLT-4 it was 30.7 µM (inactive).
In the case of `COc1c2c(c(OC)c3c(=O)cc(C/C(=N/NC(=O)C[n+]4ccccc4)C(=O)Nc4cc(C)ccc4C)oc13)OCO2`, the GI50 in the assay on K562, in the assay with HOP-62, in the assay on SN12C, with NCI-H23, in the assay on Malme-3M and in the assay with U-251 was > 100 µM (inactive) in each case. Also, the GI50 in the assay on M14, in the assay on CAKI-1, with COLO 205, in the assay with SK-MEL-2, with HL-60 and in the assay on SNB-19 was > 100 µM (inactive) each time. Also, the GI50 in the assay on SK-MEL-28, with NCI-H522, with 786-0 and in the assay with MOLT-4 was > 100 µM (inactive) in each case.
For `COc1cc(OC)c2c(c1)C(=O)C(CC(C)O)=CC2=O` (stereo unspecified), the GI50 was 14.9 µM (inactive) with K562; 19.4 µM (inactive) with HOP-62; 18.7 µM (inactive) in the assay with SN12C; 19.7 µM (inactive) in the assay with NCI-H23; 22.7 µM (inactive) in the assay with Malme-3M; 17.9 µM (inactive) with U-251. Besides, the GI50 with M14 was 18.5 µM (inactive); in the assay on CAKI-1, 20.1 µM (inactive); in the assay with COLO 205 it was 18.6 µM (inactive); in the assay on SK-MEL-2, 19.7 µM (inactive); in the assay on HL-60 it was 5.47 µM (inactive); in the assay on SNB-19, 17.7 µM (inactive). The GI50 is 17.7 µM (inactive) in the assay with SK-MEL-28, 14.4 µM (inactive) in the assay on NCI-H522, 16.2 µM (inactive) with 786-0 and 3.89 µM (inactive) in the assay with MOLT-4.
Regarding `CCc1cccc(C(C)CC)c1/N=C(/NC(=O)c1ccccc1C(=O)N/C(=N/c1c(CC)cccc1C(C)CC)SC)SC` (stereo unspecified), the GI50 is 27.7 µM (inactive) in the assay on K562; 31.1 µM (inactive) in the assay on HOP-62; 40.1 µM (inactive) with SN12C; 31.9 µM (inactive) in the assay with NCI-H23; 48.5 µM (inactive) in the assay on Malme-3M; 26.2 µM (inactive) in the assay on U-251. For the same compound, the GI50 in the assay on M14 is 20 µM (inactive); in the assay on CAKI-1, 42.2 µM (inactive); with COLO 205 it was 40.6 µM (inactive); in the assay with SK-MEL-2, 40.9 µM (inactive); in the assay on HL-60 it was 20.9 µM (inactive); in the assay with SNB-19, 49.8 µM (inactive). For the same compound, the GI50 with SK-MEL-28 is 45 µM (inactive); with NCI-H522, 28.2 µM (inactive); with 786-0 it was 49.3 µM (inactive); in the assay on MOLT-4, 29.2 µM (inactive).
As to `CC1CN(c2ccc(Cl)cc2)CC(C)OC(=O)O1` (stereo unspecified), the GI50 with K562, in the assay on HOP-62, in the assay on SN12C, in the assay on NCI-H23, with Malme-3M and in the assay on U-251 was > 100 µM (inactive) in each case. Moreover, the GI50 in the assay with M14, with CAKI-1, in the assay with COLO 205, in the assay on SK-MEL-2, in the assay on HL-60 and with SNB-19 was > 100 µM (inactive) in each case. In addition, the GI50 in the assay on SK-MEL-28, in the assay on NCI-H522 and in the assay on 786-0 was > 100 µM (inactive) throughout.
Regarding `Cc1ccc(S(=O)(=O)N/N=C/c2oc(-c3ccncc3)c(-c3ccncc3)c2[N+](=O)[O-])cc1`, the GI50 in the assay on K562, with HOP-62, in the assay with SN12C, in the assay on NCI-H23, in the assay on Malme-3M and in the assay on U-251 was > 100 µM (inactive) throughout. Further, the GI50 with M14, with CAKI-1, with COLO 205, with SK-MEL-2, in the assay on HL-60 and in the assay with SNB-19 was > 100 µM (inactive) in each case. Moreover, the GI50 in the assay on SK-MEL-28, in the assay on NCI-H522, in the assay on 786-0 and in the assay with MOLT-4 was > 100 µM (inactive) in each case.
Take `CCN1C(=O)C(=CN)C(=O)N(CC)C1=O`: the GI50 in the assay on K562 is > 100 µM (inactive); in the assay with HOP-62, > 100 µM (inactive); in the assay on SN12C it was > 100 µM (inactive); in the assay on NCI-H23 it was > 100 µM (inactive); with Malme-3M, > 100 µM (inactive); with U-251, 10 µM (inactive). The GI50 with M14, in the assay on CAKI-1, in the assay with COLO 205, in the assay with SK-MEL-2, with HL-60 and in the assay with SNB-19 was > 100 µM (inactive) throughout. Moreover, the GI50 in the assay on SK-MEL-28, in the assay with NCI-H522, with 786-0 and in the assay on MOLT-4 was > 100 µM (inactive) throughout.
As for `CN1C(OCc2ccccc2)c2c(ccc3c2OCO3)C2C=Cc3cc4c(cc3C21)OCO4` (stereo unspecified), the GI50 in the assay on K562 is 0.611 µM (active); in the assay on HOP-62, 1.58 µM (inactive); with SN12C, 1.32 µM (inactive); in the assay with NCI-H23 it was 1.38 µM (inactive); with Malme-3M, 1.26 µM (inactive); in the assay on U-251, 1.51 µM (inactive). Further, the GI50 is 0.885 µM (active) in the assay with M14; 1.03 µM (active) in the assay with CAKI-1; 1.02 µM (active) in the assay on COLO 205; 1.55 µM (inactive) in the assay with SK-MEL-2; 0.226 µM (active) with HL-60; 1.69 µM (inactive) in the assay on SNB-19. The GI50 in the assay with SK-MEL-28 was 0.455 µM (active); in the assay with NCI-H522 it was 0.989 µM (active); in the assay with 786-0, 1.36 µM (inactive); in the assay on MOLT-4, 0.223 µM (active).
Regarding `C/C(=C\c1ccccc1)C(O)S(=O)(=O)O` (stereo unspecified), the GI50 with K562, with HOP-62, with SN12C, with NCI-H23, in the assay on Malme-3M and in the assay on U-251 was > 100 µM (inactive) in each case. Besides, the GI50 in the assay with M14, with CAKI-1, with COLO 205, in the assay on SK-MEL-2, in the assay on HL-60 and in the assay with SNB-19 was > 100 µM (inactive) throughout. For the same compound, the GI50 with SK-MEL-28, in the assay with NCI-H522, in the assay with 786-0 and in the assay with MOLT-4 was > 100 µM (inactive) throughout.
`CCOc1ccc(NCc2cc(OC)c(OC)c(OC)c2)cc1`: the GI50 with K562 was 0.269 µM (active); in the assay on HOP-62, 0.675 µM (active); with NCI-H23, 1.96 µM (inactive); with U-251 it was 0.536 µM (active); with M14, 0.425 µM (active); in the assay on COLO 205, 0.495 µM (active). Moreover, the GI50 with PC-3 was 1960 nM (inactive); in the assay with NCI/ADR-RES, 0.359 µM (active); with HL-60 it was 0.463 µM (active); in the assay on SNB-19 it was 2.88 µM (inactive); in the assay on SK-MEL-28 it was 2.99 µM (inactive); with NCI-H522, 0.452 µM (active). The GI50 in the assay on 786-0 was 1.32 µM (inactive); in the assay with MOLT-4, 0.822 µM (active).
Regarding `COc1cccc2c1C(=O)c1c(O)c3c(c(O)c1C2=O)C[C@@](O)(C(=O)CO)C[C@@H]3OC1CC(N)C(O)C(C)O1` (stereo partly specified), the GI50 was 89.5 nM (active) and 170 nM (active) with SN12C; 76.4 nM (active) and 105 nM (active) in the assay on NCI-H23; 44.9 nM (active) and 85.9 nM (active) in the assay on U-251; 269 nM (active) and 176 nM (active) with CAKI-1; 252 nM (active) and 203 nM (active) in the assay on SK-MEL-2; 237 nM (active) and 255 nM (active) in the assay on PC-3. Moreover, the GI50 was 60.5 nM (active) and 57 nM (active) with HL-60; 54.3 nM (active) and 92 nM (active) in the assay on SNB-19; 102 nM (active) and 57.5 nM (active) in the assay on 786-0; 16.9 nM (active) and 10 nM (active) in the assay with MOLT-4.
